Measured values: US20100087477A1, “SELECTIVE GLYCOSIDASE INHIBITORS” (priority 2006, published 2010)
Read-outs that look alike come from different tables or passages of the source.

What was measured:
[1] = test system: human lysosomal hexosaminidases HexA and HexB; details: background, literature; cited from earlier work
[2] = biological target: T1, OGA (Homo sapiens, UniProt O60502); details: background, literature; cited from earlier work
T1 sequence (O60502 1-916): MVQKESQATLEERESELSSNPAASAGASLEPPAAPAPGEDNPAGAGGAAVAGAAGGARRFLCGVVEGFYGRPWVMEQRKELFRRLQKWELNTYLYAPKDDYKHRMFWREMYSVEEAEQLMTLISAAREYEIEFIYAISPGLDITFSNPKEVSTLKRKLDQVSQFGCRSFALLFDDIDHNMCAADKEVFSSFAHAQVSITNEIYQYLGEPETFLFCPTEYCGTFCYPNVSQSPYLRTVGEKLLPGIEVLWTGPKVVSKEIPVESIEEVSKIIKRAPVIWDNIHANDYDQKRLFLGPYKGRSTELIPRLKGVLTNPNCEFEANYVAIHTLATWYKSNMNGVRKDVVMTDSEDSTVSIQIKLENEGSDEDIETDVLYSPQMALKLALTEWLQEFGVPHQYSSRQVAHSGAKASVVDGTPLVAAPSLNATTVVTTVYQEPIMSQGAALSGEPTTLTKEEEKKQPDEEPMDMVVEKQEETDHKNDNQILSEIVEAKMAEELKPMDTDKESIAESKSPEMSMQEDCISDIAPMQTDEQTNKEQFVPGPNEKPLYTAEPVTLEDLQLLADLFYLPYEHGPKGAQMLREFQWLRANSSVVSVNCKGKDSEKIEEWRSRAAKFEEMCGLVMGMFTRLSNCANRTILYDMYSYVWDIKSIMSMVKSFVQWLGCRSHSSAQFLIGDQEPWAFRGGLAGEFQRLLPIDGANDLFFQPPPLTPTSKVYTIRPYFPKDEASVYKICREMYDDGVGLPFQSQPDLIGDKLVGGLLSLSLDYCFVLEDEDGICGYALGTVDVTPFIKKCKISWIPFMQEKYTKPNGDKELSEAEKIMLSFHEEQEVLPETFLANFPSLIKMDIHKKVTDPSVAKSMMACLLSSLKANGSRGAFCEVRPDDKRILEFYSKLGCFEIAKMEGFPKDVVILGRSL

[3] = biological target: bacterial O-GlcNAcase (bOGA) (NagJ from Clostridium perfringens) (Clostridium perfringens, UniProt Q8XL08); assay: biochemical; parameters: Ratio a/b: reference not given here
[4] = biological target: mixture of the human placental hexosaminidases HexA/HexB; assay: Steady state kinetics of hexosaminidases A and B with 4MU-GlcNAc; assay type: biochemical
[5] = biological target: T2, human OGA (hOGA) (Homo sapiens, UniProt O60502); assay: Inhibition of human OGA (hOGA), methodology similar to bOGA; assay type: biochemical
T2 sequence (O60502 1-916): T1 sequence (O60502 1-916)

[6] = test system: HEK 293 cells; assay: Immunoblot: O-GlcNAc levels in treated HEK 293 cells; assay type: cell-based, human; details: FIG. 4B
[7] = biological target: bOGA (Clostridium perfringens, UniProt Q8XL08); assay type: biochemical
[8] = read-out: Ki values (in M) a) hexosaminidases

bacterial O-GlcNAcase (bOGA) (NagJ from Clostridium perfringens), sequence (Q8XL08 31-1001 limits assumed): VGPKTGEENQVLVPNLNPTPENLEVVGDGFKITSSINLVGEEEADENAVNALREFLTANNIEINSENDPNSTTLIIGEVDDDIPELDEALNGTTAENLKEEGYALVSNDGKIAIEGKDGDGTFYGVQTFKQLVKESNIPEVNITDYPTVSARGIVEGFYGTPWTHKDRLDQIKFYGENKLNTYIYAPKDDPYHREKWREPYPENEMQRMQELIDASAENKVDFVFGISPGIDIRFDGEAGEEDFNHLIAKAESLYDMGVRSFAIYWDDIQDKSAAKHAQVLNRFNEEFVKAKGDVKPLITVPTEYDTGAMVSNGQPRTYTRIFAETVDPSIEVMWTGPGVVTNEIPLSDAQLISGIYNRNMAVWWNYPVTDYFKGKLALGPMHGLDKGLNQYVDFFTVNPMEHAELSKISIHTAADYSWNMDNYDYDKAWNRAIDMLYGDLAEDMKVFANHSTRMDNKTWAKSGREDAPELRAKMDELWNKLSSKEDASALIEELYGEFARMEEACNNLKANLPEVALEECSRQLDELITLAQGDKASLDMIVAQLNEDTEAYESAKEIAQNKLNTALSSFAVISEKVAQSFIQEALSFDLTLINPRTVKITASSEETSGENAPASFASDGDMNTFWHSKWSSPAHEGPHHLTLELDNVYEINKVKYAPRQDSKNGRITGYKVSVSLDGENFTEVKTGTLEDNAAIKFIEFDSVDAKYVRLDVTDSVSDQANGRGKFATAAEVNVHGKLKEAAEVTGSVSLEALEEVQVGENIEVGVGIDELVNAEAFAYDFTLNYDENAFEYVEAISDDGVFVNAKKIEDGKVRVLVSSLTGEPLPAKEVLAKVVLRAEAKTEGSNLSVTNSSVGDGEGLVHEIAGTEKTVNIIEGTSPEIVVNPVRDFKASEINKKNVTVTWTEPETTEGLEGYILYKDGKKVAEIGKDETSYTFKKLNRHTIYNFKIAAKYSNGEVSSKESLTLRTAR
bOGA, sequence (Q8XL08 31-1001 limits assumed): as above

SMILES: CC(=O)N[C@H]1/C(=N/OC(=O)Nc2ccccc2)O[C@H](CO)[C@@H](O)[C@@H]1O [PUGNAc, O-(2-acetamido-2-deoxy-D-glucopyrano-sylidene)amino-N-phenylcarbamate]
- inhibition of HexA and HexB (in words) [1]: potent inhibitor
- inhibition of OGA (in words) [2]: nanomolar inhibitor

SMILES: CC(=O)NC1c2nc(CCc3ccccc3)cn2C(CO)[C@@H](O)[C@@H]1O (stereo partly drawn) [Compound III]
- Ki [3]: 7.8 pM
- Ratio a/b [3]: 256
- Ki [4, 8]: 2 nM

SMILES: CC(=O)NC1c2nc(C(=O)Nc3ccccc3)cn2C(CO)[C@@H](O)C1O (stereo partly drawn) [A]
- inhibition of OGA (in words) [2]: only acts at the micromolar level

SMILES: CC(C)C(=O)NC1c2nc(CCc3ccccc3)cn2C(CO)[C@@H](O)C1O (stereo partly drawn) [Compound II]
- inhibition of hOGA (in words) [5]: active against human OGA
- IC50 ([5]; hOGA, FIG. 5): 8 nM
- inhibition of hOGA (in words) ([5]; listed as GlcNacstain): more potent inhibitor than PUGNac
- Ki [3]: 4.6 ± 0.2 pM
- Ratio a/b [3]: 108000
- raising O-GlcNAc levels [6]: more efficient at raising O-GlcNAc levels than PUGNAc
- Ki ([4]; HexA/HexB mixture, read-out: Ki values (in M) a) hexosaminidases): 500 nM
- Ki ([4]; placental hexosaminidases, 0-400 nM inhibitor, FIG. 3, read-out: Ki): 520 ± 70 nM
- activity in inhibiting bOGA from removing O-GlcNAc from proteins [7]: more active than PUGNAc

SMILES: COC(=O)Cc1cn2c(n1)C(NC(C)=O)[C@@H](O)[C@H](O)C2CO (stereo partly drawn) [V, reference compound]
- Ki [3]: 3 pM
- Ratio a/b [3]: 2500
- Ki [4, 8]: 7.5 nM

SMILES: CCC(=O)NC1c2nc(CCc3ccccc3)cn2C(CO)[C@@H](O)[C@@H]1O (stereo partly drawn) [Compound IV]
- Ki [3]: 11 pM
- Ratio a/b [3]: 440
- Ki [4, 8]: 4.8 nM
